Assay results as given in ChEMBL document CHEMBL2034863, “Application of MM-GB/SA and WaterMap to SRC Kinase Inhibitor Potency Prediction” (ACS Med Chem Lett, 2012).

Molecular target: Proto-oncogene tyrosine-protein kinase Src (Homo sapiens, UniProt P12931)
Sequence (P12931 2-536 limits assumed): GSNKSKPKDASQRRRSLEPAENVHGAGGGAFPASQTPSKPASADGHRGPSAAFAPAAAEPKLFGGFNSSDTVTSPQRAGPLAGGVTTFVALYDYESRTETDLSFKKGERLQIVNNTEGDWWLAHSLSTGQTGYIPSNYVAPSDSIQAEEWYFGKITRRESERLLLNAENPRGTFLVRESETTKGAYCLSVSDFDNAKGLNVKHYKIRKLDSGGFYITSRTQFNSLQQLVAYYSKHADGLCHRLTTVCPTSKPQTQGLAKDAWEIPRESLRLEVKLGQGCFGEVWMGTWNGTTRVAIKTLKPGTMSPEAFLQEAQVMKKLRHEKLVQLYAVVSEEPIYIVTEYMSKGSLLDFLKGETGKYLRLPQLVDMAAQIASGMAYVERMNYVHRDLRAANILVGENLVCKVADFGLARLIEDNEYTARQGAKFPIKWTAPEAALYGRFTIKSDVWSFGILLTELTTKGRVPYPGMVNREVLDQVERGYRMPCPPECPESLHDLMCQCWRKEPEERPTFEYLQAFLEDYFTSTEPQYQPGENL

SMILES	IC50 [nM]
C=Cn1cnc2c(Nc3ccc(P(C)(C)=O)cc3)ncnc21	1000
C=Cn1cnc2c(Nc3ccc(P(C)(C)=O)cc3)nc(N3CCC(CO)CC3)nc21	155
CCn1cnc2c(Nc3ccc(P(C)(C)=O)cc3)nc(NC3CCOCC3)nc21	41.2
Cc1cccc(C)c1/C=C/n1cnc2c(Nc3ccc(P(C)(C)=O)cc3)nc(-c3ccccn3)nc21	43.1
C=Cn1cnc2c(Nc3ccc(P(C)(C)=O)cc3)nc(OC3CCOC3)nc21 (centres undefined)	188
CCn1cnc2c(Nc3ccc(C(C)C)cc3)nc(C(C)C)nc21	385

Molecules with a lower IC50, results first:

IC50 [nM]	SMILES
8.8	CCCCP(=O)(CCCC)c1ccc(Nc2nc(C(C)C)nc3c2ncn3CC)cc1
25.1	CCn1cnc2c(Nc3ccc(P(C)(C)=O)cc3)nc(C(C)C)nc21
3.9	CCCP(=O)(CCC)c1ccc(Nc2nc(C(C)C)nc3c2ncn3CC)cc1
